In patent US20100086602A1, “PHARMACEUTICAL COMPOSITION CONTAINING STATIN-ENCAPSULATED NANOPARTICLE” (priority 2006, published 2010):
Entries after “also recorded” stand apart in the source; their conditions may differ.

Experiments:
[1] = Serological assessment 14 days after hindlimb ischemia; type: in vivo, mice
Procedure: (§1) Male C57BL/6J wild-type mice were bred and maintained in the Laboratory of Animal Experiments at Kyushu University. After anesthesia with an intraperitoneal injection of ketamine hydrochloride and xyladine hydrochloride, animals underwent surgical ligation and resection of the left femoral artery to produce unilateral hindlimb ischemia. […] As a control, a group of PLGA-FITC-mice (FITC group) received intramuscular injections of FITC-loaded PLGA nanoparticles (0.16 mg/100 μl), a group of PEG/CS-PLGA-FITC-mice (PEG/CS-FITC group) received intramuscular injections of FITC-loaded PEG/CS PLGA nanoparticles (0.16 mg/100 μl), and another group of mice (NT group) received no treatment.
There were no difference between each group in the total cholesterol, triglyceride, myoglobin, CK, BUN and Cre values in serum.

hindlimb ischemia [2] = test: Partial pressure ratio of oxygen in arterial and venous blood during muscular exercise of ischemic hindlimb; type: in vivo, Japanese rabbit; conditions: 35 days after ischemia; exercise by electric stimulus for 30 minutes; 0, 15 and 30 minutes
Procedure: Japanese rabbits (2.7 to 3.2 kg) underwent surgical ligation and resection of the unilateral femoral artery to produce hindlimb ischemia. After 7 days, animals were randomized to four groups: PLGA-pitavastatin group, PLGA-FITC group, pitavastatin group and PBS group, and received therapeutic substances by intra-ischemic-muscular injection of 5 ml (concentration of pitavastatin-loaded nanoparticle 6 mg/ml, corresponding to 0.33 mg/ml of pitavastatin). After 28 days from intramuscular injection (35 days after ischemia), animals were performed angiography. Mice were inserted catheters (5 Fr) from right internal carotid artery and the catheters were placed in left internal iliac artery under fluoroscopic control. […] 5 mm of grids were prepared within the range surrounded by lower end of femur (upper end), lower end of quadriceps (lower end), arteria iliaca interna (trunks are not counted, inner end) and distal portion of severed blood vessel (outer end). Angiographic score was calculated by dividing the number of grids in which blood vessel is found by total number of grids.
The effect of nanostatin on insufficient blood from at ischemic hindlimb on muscular exercising is examined. […] The partial pressure ratio of oxygen in arterial and venous blood in each time point was determined. The concentration of hemoglobine was determined at 0 minute. […]

hindlimb ischemia [3] = test: Angiography 35 days after hindlimb ischemia (angiographic score); type: in vivo, Japanese rabbits; conditions: Mean±SE; 35 days after ischemia, 28 days after intramuscular injection of 5 ml (0.33 mg/ml pitavastatin)
Procedure: Japanese rabbits (2.7 to 3.2 kg) underwent surgical ligation and resection of the unilateral femoral artery to produce hindlimb ischemia. After 7 days, animals were randomized to four groups: PLGA-pitavastatin group, PLGA-FITC group, pitavastatin group and PBS group, and received therapeutic substances by intra-ischemic-muscular injection of 5 ml (concentration of pitavastatin-loaded nanoparticle 6 mg/ml, corresponding to 0.33 mg/ml of pitavastatin). After 28 days from intramuscular injection (35 days after ischemia), animals were performed angiography. Mice were inserted catheters (5 Fr) from right internal carotid artery and the catheters were placed in left internal iliac artery under fluoroscopic control. 0.25 mg of Millisrol were injected into artery through catheters, followed by injection of imaging agents at the rate of 1 ml/second for 5 seconds to perform angiography. An assessment for the number of blood vessel was carried out by using static images at 3 second after injection of imaging agents. 5 mm of grids were prepared within the range surrounded by lower end of femur (upper end), lower end of quadriceps (lower end), arteria iliaca interna (trunks are not counted, inner end) and distal portion of severed blood vessel (outer end). Angiographic score was calculated by dividing the number of grids in which blood vessel is found by total number of grids.

[4] = system: unilateral hindlimb ischemia; test: Laser Doppler perfusion imaging of limb blood flow after hindlimb ischemia; type: in vivo, mice; conditions: single intramuscular injection containing 0.01 mg statin (0.5 mg/kg), days 0, 3, 7 and 14, versus no-treatment
Procedure: (§2) A group of PLGA-Pit-mice (PLGA-Pit group) and a group of PEG/CS-PLGA-Pit-mice (PEG/CS-Pit group) received intramuscular injections of pitavastatin-loaded PLGA nanoparticles (0.18 mg/100 μl) and pitavastatin-loaded PEG/CS-PLGA nanoparticles (0.44 mg/100 μl, each containing 0.01 mg of pitavastatin), respectively. As control, a group of PLGA-mice (PLGA group) received intramuscular injections of PLGA nanoparticles (0.18 mg/100 μl) and another group of mice (NT group) received no treatment.

[5] = system: unilateral hindlimb ischemia; test: Capillary density by immunohistochemical staining with anti-mouse PECAM-1 (CD31) antibody; type: in vivo, mice; conditions: day 14 after hindlimb ischemia; 0.01 mg statin intramuscular
Procedure: as §2

hindlimb ischemia [6] = test: Recovery rate of ischemic tissues, pitavastatin dose comparison (FIG. 15); type: in vivo, mice; conditions: intramuscular, one portion; only pitavastatin 0.4, 4 and 20 mg/kg or PLGA-pitavastatin; days 3, 7 and 14
Procedure: The recovery rate of ischemic tissues were determined for ischemic mice injected intramuscularly with only nanoparticles, only pitavastatin (0.4, 4 and 20 mg/kg) or PLGA-pitavastatin in one portion.

[7] = system: unilateral hindlimb ischemia; test: Arteriogenesis by immunohistochemical staining with α-SMA; type: in vivo, mice; conditions: day 14 after hindlimb ischemia; 0.01 mg pitavastatin intramuscular
Procedure: as §2
Arteriogenesis was determined by immunohistochemical staining with α-SMA.

[8] = system: muscular tissues of ischemic hindlimb; parameters: species or system mice; conditions: mouse, in vivo
Procedure: as §1

CC(C)c1c(C(=O)Nc2ccccc2)c(-c2ccccc2)c(-c2ccc(F)cc2)n1CC[C@@H](O)C[C@@H](O)CC(=O)O [atorvastatin]
signs of rhabdomyolysis ([1]; intramuscularly injected mice): Neither group of atorvastatin nor atorvastatin-loaded nanoparticle intramuscularly injected mice showed the signs of rhabdomyolysis | BUN ([1]; serum, n = 4): 30.3 ± 2.8 mg/dL | CK ([1]; serum, n = 4): 159.0 ± 37.7 IU/L | Cre ([1]; serum, n = 4): 0.083 ± 0.009 mg/dL | myoglobin ([1]; serum, n = 4): <10 ng/mL | total cholesterol ([1]; serum, n = 4): 66.0 ± 3.2 mg/dL | triglyceride ([1]; serum, n = 4): 13.5 ± 1.8 mg/dL

O=C(O)C[C@H](O)C[C@H](O)/C=C/c1c(C2CC2)nc2ccccc2c1-c1ccc(F)cc1 [pitavastatin]
partial pressure ratio of oxygen in arterial and venous blood during muscular exercise (hindlimb ischemia [2]): increases of partial pressure ratio of oxygen in arterial and venous blood were shown | Angiographic score (hindlimb ischemia [3]): 0.51±0.04 | limb blood flow at ischemic side (LDPI index, ratio of ischemic to normal limb) [4]: comparable to no-treatment group | limb blood flow at ischemic side (LDPI index, ratio of ischemic to normal limb) ([4]; listed as Pit): no improvement of blood flow | capillary density, endothelial cells (CD31 positive cells) [5]: comparable to no-treatment group | recovery of ischemic tissues / angiogenesis (ratio of ischemic region to normal region) (hindlimb ischemia [6]): does not result in angiogenesis; also recorded: No angiogenesis | α-SMA positive vascular structure (arteriogenesis) [7]: comparable to no-treatment group

FITC
nanoparticles remaining in muscular tissues (fluorescence) [8]: nanoparticles remain in muscular tissues on day 7
